Values joined by “and” are separate entries in the source; they are usually repeats but may differ in a detail not shown here. Equal entries are not always repeated. Inconclusive results and toxic doses are left out. Square brackets hold non-standard residues; d marks the D form. Peptide text beside a SMILES is read from it. * marks the point of attachment. ξ: configuration not given here. Cbz = O=C(OCc1ccccc1)*; ξT = CC(O)C(N)C(=O)O; OBn = c1ccc(CO*)cc1
Tested on: P388 leukemia ip, CD2F1 mice, survival T/C
Test: NCI In Vivo Anticancer Drug Screen. Data for tumor model P388 Leukemia (intraperitoneal) in CD2F1 (CDF1) mice
Details: endpoint: median survival time, higher = longer survival
Method in brief: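 Mice carrying the transplanted tumor received test compound or vehicle. Survival was recorded in each group, and the value is the treated-group measurement divided by that of the vehicle-treated control group.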

[1] = dose: 50.0 mg/kg/injection, schedule: Q01DX005 (ip), vehicle: saline with Tween-80
[2] = dose: 100.0 mg/kg/injection, schedule: Q01DX005 (ip), vehicle: saline with Tween-80
[3] = dose: 200.0 mg/kg/injection, schedule: Q01DX005 (ip), vehicle: saline with Tween-80
[4] = dose: 60.0 mg/kg/injection, schedule: Q01DX005 (ip), vehicle: Klucel (hydroxypropylcellulose) (HPC)
[5] = dose: 120.0 mg/kg/injection, schedule: Q01DX005 (ip), vehicle: Klucel (hydroxypropylcellulose) (HPC)
[6] = dose: 240.0 mg/kg/injection, schedule: Q01DX005 (ip), vehicle: Klucel (hydroxypropylcellulose) (HPC)

SMILES: CC(O)C(NC(=O)OCc1ccccc1)C(=O)NCC(=O)NCC(=O)OCc1ccccc1 (stereo not drawn) (Cbz-[ξT]-Gly-Gly-OBn)
- T/C [1]: 106 % of control
- T/C [2]: 100 % of control
- T/C [3]: 106 % of control

SMILES: COc1cc(COC(=O)c2ccc(CSc3ccc(Cl)cc3)o2)cc(OC)c1OC
- T/C [1]: 99 % of control
- T/C [2]: 99 % of control

SMILES: O=C1CSC(=Nc2ccc(F)cc2F)N1Cc1cccs1
- T/C [4]: 102 % of control
- T/C [5]: 113 % of control
- T/C [6]: 103 % of control

SMILES: Cc1ccc(-n2c(=O)c3[nH]c4ccccc4sc=3c2=O)cc1
- T/C [1]: 102 % of control
- T/C [2]: 95 % of control
- T/C [3]: 91 % of control

SMILES: CC1=C(CO)C(=O)OC(C(C)C2CCC3C4CC5OC56C(O)C(N5CCCCCC5)CC(=O)C6(C)C4CCC23C)C1 (stereo unspecified)
- T/C (dose: 9.38 mg/kg/injection, schedule: Q01DX005 (ip), vehicle: Klucel (hydroxypropylcellulose) (HPC)): 101 % of control
- T/C (dose: 18.75 mg/kg/injection, schedule: Q01DX005 (ip), vehicle: Klucel (hydroxypropylcellulose) (HPC)): 101 % of control
- T/C (dose: 37.5 mg/kg/injection, schedule: Q01DX005 (ip), vehicle: Klucel (hydroxypropylcellulose) (HPC)): 105 % of control
- T/C (dose: 75.0 mg/kg/injection, schedule: Q01DX005 (ip), vehicle: Klucel (hydroxypropylcellulose) (HPC)): 105 % of control
- T/C (dose: 150.0 mg/kg/injection, schedule: Q01DX005 (ip), vehicle: Klucel (hydroxypropylcellulose) (HPC)): 104 % of control

SMILES: Clc1ccc(N=NN2CCOC2)cc1
- T/C (dose: 60.0 mg/kg/injection, schedule: Q01DX005 (ip), vehicle: saline with Tween-80): 115 % of control
- T/C (dose: 120.0 mg/kg/injection, schedule: Q01DX005 (ip), vehicle: saline with Tween-80): 109 % of control

SMILES: N#CC(C#N)=CC(C#N)C#N
- T/C (dose: 12.5 mg/kg/injection, schedule: Q01DX005 (ip), vehicle: saline): 104 % of control
- T/C (dose: 25.0 mg/kg/injection, schedule: Q01DX005 (ip), vehicle: saline): 101 % of control
- T/C (dose: 50.0 mg/kg/injection, schedule: Q01DX005 (ip), vehicle: saline): 107 % of control and 92 % of control

SMILES: COc1cccc2c1C(=O)c1c(O)c3c(c(O)c1C2=O)[C@@H](OC)[C@@](O)(C(C)=O)C[C@@H]3OC1CC(N)C(O)C(C)O1 (stereo partly specified)
- T/C (dose: 3.13 mg/kg/injection, schedule: Q04DX003 (ip), vehicle: saline): 110 % of control
- T/C (dose: 6.25 mg/kg/injection, schedule: Q04DX003 (ip), vehicle: saline): 115 % of control

SMILES: COC(=O)c1c(C)cc(OC)c(C/C=C(\C)CCCc2coc(C=C(C)C)c2)c1OC
- T/C (dose: 4.5 mg/kg/injection, schedule: Q01DX005 (ip), vehicle: Klucel (hydroxypropylcellulose) (HPC)): 106 % of control
- T/C (dose: 9.0 mg/kg/injection, schedule: Q01DX005 (ip), vehicle: Klucel (hydroxypropylcellulose) (HPC)): 100 % of control
- T/C (dose: 18.0 mg/kg/injection, schedule: Q01DX005 (ip), vehicle: Klucel (hydroxypropylcellulose) (HPC)): 99 % of control
- T/C (dose: 36.0 mg/kg/injection, schedule: Q01DX005 (ip), vehicle: Klucel (hydroxypropylcellulose) (HPC)): 98 % of control
- T/C (dose: 50.0 mg/kg/injection, schedule: Q01DX005 (ip), vehicle: Klucel (hydroxypropylcellulose) (HPC)): 97 % of control
- T/C (dose: 72.0 mg/kg/injection, schedule: Q01DX005 (ip), vehicle: Klucel (hydroxypropylcellulose) (HPC)): 104 % of control
- T/C (dose: 100.0 mg/kg/injection, schedule: Q01DX005 (ip), vehicle: Klucel (hydroxypropylcellulose) (HPC)): 98 % of control
- T/C (dose: 200.0 mg/kg/injection, schedule: Q01DX005 (ip), vehicle: Klucel (hydroxypropylcellulose) (HPC)): 99 % of control

SMILES: CC(C)=CCCC1(C)OC2(C)CCC1CC2 (stereo unspecified)
- T/C (dose: 0.75 mg/kg/injection, schedule: Q01DX005 (ip), vehicle: Klucel (hydroxypropylcellulose) (HPC)): 95 % of control
- T/C (dose: 1.5 mg/kg/injection, schedule: Q01DX005 (ip), vehicle: Klucel (hydroxypropylcellulose) (HPC)): 95 % of control
- T/C (dose: 3.0 mg/kg/injection, schedule: Q01DX005 (ip), vehicle: Klucel (hydroxypropylcellulose) (HPC)): 99 % of control
- T/C (dose: 6.0 mg/kg/injection, schedule: Q01DX005 (ip), vehicle: Klucel (hydroxypropylcellulose) (HPC)): 96 % of control

SMILES: Cc1cc(N(CCOS(C)(=O)=O)CCOS(C)(=O)=O)ccc1C=O
- T/C (dose: 3.12 mg/kg/injection, schedule: Q01DX009 (ip), vehicle: Klucel (hydroxypropylcellulose) (HPC)): 150 % of control and 176 % of control
- T/C (dose: 6.25 mg/kg/injection, schedule: Q01DX009 (ip), vehicle: Klucel (hydroxypropylcellulose) (HPC)): 174 % of control and 196 % of control
- T/C (dose: 12.5 mg/kg/injection, schedule: Q01DX009 (ip), vehicle: Klucel (hydroxypropylcellulose) (HPC)): 110 % of control and 213 % of control and 217 % of control

SMILES: CC(Oc1ccc(Oc2ccc(Cl)cc2)cc1)C(=O)O (stereo unspecified)
- T/C (dose: 50.0 mg/kg/injection, schedule: Q01DX009 (ip), vehicle: Klucel (hydroxypropylcellulose) (HPC)): 102 % of control
- T/C (dose: 100.0 mg/kg/injection, schedule: Q01DX009 (ip), vehicle: Klucel (hydroxypropylcellulose) (HPC)): 90 % of control
- T/C (dose: 200.0 mg/kg/injection, schedule: Q01DX009 (ip), vehicle: Klucel (hydroxypropylcellulose) (HPC)): 89 % of control

SMILES: CCc1ccc(NCc2ccc(CNc3ccc(CC)cc3)cc2)cc1
- T/C (dose: 50.0 mg/kg/injection, schedule: Q01DX009 (ip), vehicle: saline with Tween-80): 86 % of control
- T/C (dose: 100.0 mg/kg/injection, schedule: Q01DX009 (ip), vehicle: saline with Tween-80): 96 % of control
- T/C (dose: 200.0 mg/kg/injection, schedule: Q01DX009 (ip), vehicle: saline with Tween-80): 94 % of control

SMILES: O=C1c2cscc2C(=O)c2c(Cl)sc(Cl)c21
- T/C (dose: 25.0 mg/kg/injection, schedule: Q01DX009 (ip), vehicle: saline with Tween-80): 95 % of control

SMILES: NC(=S)CCCCCC(N)=S
- T/C [1]: 103 % of control
- T/C [2]: 111 % of control
- T/C [3]: 103 % of control

SMILES: CN1C(=O)C(CC(N)=O)NC1=S (stereo unspecified)
- T/C [4]: 95 % of control
- T/C [5]: 86 % of control
- T/C [6]: 93 % of control

Reference: PubChem BioAssay AID330 (DTP/NCI, 2004)
